In patent publication US20240390238A1, “MINIMALIST EMULSION COMPOSITIONS” (Baek Clinical Inc., priority 2021, published 2024):

Experiments:
erythema (skin redness) = conditions: concentrations of 0.2%; clinical data from SEPPIC; cited from earlier work
[1] = Solubility of optional additional components in the solvents; format: physicochemical
Excerpt: Additional ingredients were chosen for their compatibility with (e.g., miscibility in) 1,3 propanediol, 1,2 propanediol, and 1,3 butanediol.

[2] = Description: A series of experiments were performed to assess and optimize the components of the subject vitamin C formulations. […] U refers to urea. % values are wt %
[3] = Comparative studies of prior-art ascorbic acid solutions; format: physicochemical; conditions: ascorbic acid with urea in propylene glycol, butylene glycol and propanediol
Description: This example was reproduced.
All mixtures were heated to 85° C.

In the case of madecassoside, the “Erythema (skin redness)” value (erythema (skin redness)) is given as “desirable ability to reduce erythema” and the “Solubility in 1,3 propanediol, 1,2 propanediol and 1,3 butanediol” value ([1]; at a concentration of 0.2%) is given as “soluble”.
With `COc1cc(CC(C(C)=O)C(C)=O)ccc1O` [Acetyl zingerone] the “Solubility in 1,3 propanediol, 1,2 propanediol and 1,3 butanediol” value ([1]; at the desired concentrations (0.5-1%)) was “readily soluble”.
In the case of `O=C(O)CCCCCCCC(=O)O` [AzA, Azelaic acid, reference compound], the “Concentration solubilized in 1,3 propanediol” value [1] is reported as “up to 10%”, the “Solubility in 1,3 propanediol in the presence of hydroxyethyl urea” value [1] is reported as “slightly increased” and the “Concentration solubilized in a 1,3 propanediol base” value ([1]; with 10% AA, 5% U) is reported as 7.5%.
For `NC(N)=O` [urea], the “Minimum amount U required to solubilize 20% AA” value [2] was roughly 10%, the “Solubility of U in 1,3 propanediol (saturation reached before recrystallization of U)” value [2] was roughly 27.8% and the “Maximum concentrations soluble before urea starts to precipitate (the ceiling)” value [3] was 20%.
With `CC1(C)[C@@H](O[C@H]2O[C@H](C(=O)O)[C@@H](O)[C@H](O)[C@H]2O[C@@H]2O[C@H](C(=O)O)[C@@H](O)[C@H](O)[C@H]2O)CC[C@]2(C)[C@H]3C(=O)C=C4[C@@H]5C[C@@](C)(C(=O)O)CC[C@]5(C)CC[C@@]4(C)[C@]3(C)CC[C@@H]12` [glycyrrhizic acid, Glycyrrhizic acid] the “Solubility in 1,3-propanediol” value ([1]; unlike 18B-glycyrrhetinic acid) was “shows solubility”.
